Patent US20260315434A1, “USE OF GUAIACOL SESQUITERPENE LACTONE DERIVATIVES” (NANJING UNIVERSITY OF CHINESE MEDICINE, priority 2023, published 2026)
Values after ≈ are worked out from the molar mass of the structure shown.

How the values were obtained:
T cells / MDSCs = test: Promotion of T cell proliferation in a co-culture model of MDSCs and T cells; assay type: cell-based, mouse; conditions: for T-cell proliferation rate (%) / T cell proliferation in MDSC-T cell co-culture: 1 μM; for T-cell proliferation rate (%): MDSCs treated 12 hours, co-culture of MDSCs and T cells, compared to the control group; for T cell proliferation in MDSC-T cell co-culture: result in words; for activation at 1 µM: Mus musculus, T-cell, 12 h, read-out: T-cell proliferation rate (%), 1 μM, MDSCs treated 12 hours, co-culture of MDSCs and T cells, compared to the control group
Procedure, shortened: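 Bone-marrow MDSCs, after compound treatment, were co-cultured 48 h at 1:1 with CFDA-SE-labelled (10 μM solution), activated splenic T cells. Proliferation of CD3+ T cells was read by flow cytometry.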

MDSCs [1] = test: Inhibition of MDSC chemotaxis (Transwell, tumor-conditioned medium); assay type: cell-based, mouse; design: inhibition of MDSC chemotaxis compared to Arg: dose or concentration left out as unconfirmed; conditions: for inhibition at 1 µM / inhibition at 10 µM: Mus musculus, read-out: Suppression Rate (MDSC chemotaxis); for inhibition of MDSC chemotaxis compared to Arg: result in words
Method: Hepa1-6 mouse hepatocellular carcinoma cells were uniformly seeded into 6-well plates. After cells reached confluence, supernatant was aspirated, and 1-1.5 mL fresh medium was added to each well. Following 24 h culture, supernatant was collected, centrifuged at 1600 rpm for 5 min, aspirated, and filtered through a 0.22 μm membrane to obtain tumor-conditioned medium for subsequent use. […] Under sterile conditions, remove the tibia, cut both ends of the bone, and aspirate the bone marrow into a 1 mL syringe. Repeat flushing into a 15 mL centrifuge tube. Centrifuge at 1600 rpm for 5 min to collect bone marrow cells. Wash twice with 1×PBS. […] Count cells, adjust density to 1×10^6 cells/mL, and uniformly seed into 24-well plates at 300 μL per well. […] Centrifuge at 1600 rpm for 5 min, remove supernatant, resuspend cells in 300 μL fresh medium, and place into Transwell chambers. […] Co-culture for 24 h.

CCR2 mRNA = test: Inhibition of CCR2 mRNA level in MDSCs; assay type: cell-based; conditions: Mus musculus, 2 h, read-out: Suppression Rate (inhibition of CCR2 mRNA levels)
Method: Under sterile conditions, the tibia was removed, both ends of the bone were cut, and bone marrow was repeatedly flushed into a 15 mL centrifuge tube using a 1 mL syringe filled with culture medium. Centrifuge at 1600 rpm for 5 min to collect bone marrow cells. […] Count cells and adjust density to 1×10^6 cells/mL in complete medium. Seed cells uniformly into 6-well plates at 2 mL per well. […] After incubation, collect cells into centrifuge tubes, centrifuge at 1600 rpm for 5 min, wash once with 1×PBS, and add 500 μL RNA extraction reagent to each tube. After centrifugation to obtain the pellet, add 20 μL DEPC-treated water to each tube to dissolve the pellet. Determine RNA concentration and reverse transcribe to cDNA. Add the cDNA, primers, and […] to a 96-well plate. Centrifuge at 4000 rpm for 5 min, then place in a PCR instrument for detection.

[2] = Water solubility testing of compounds (HPLC); conditions: deionized water, 37 °C
Hepa1-6 cells = test: Antitumor effect in Hepa1-6 mouse hepatocellular carcinoma subcutaneous xenograft model; assay type: in vivo, C57BL/6 mice; conditions: 40 μmol/kg/d oral, 2 weeks
MDSCs [3] = test: Proportion of MDSCs in tumor and spleen of H22 xenograft mice (flow cytometry); assay type: in vivo, BALB/c mice
Method: Once all tumors were dissected, nail-sized tumor pieces were transferred to 1.5 mL Eppendorf tubes and minced with scissors. Transfer the minced tumor tissue suspension to a 15 mL centrifuge tube containing 3-5 mL of digestive enzymes (Collagenase IV 1 mg/mL, Hyaluronidase 1 mg/mL, DNase 120 U/mL). Incubate at 200 rpm and 37° C. for 1 hour. After digestion, pass the mixture through a 200-mesh sieve to obtain the tumor cell suspension. Centrifuge the resulting tumor suspension at 1600 rpm for 5 min, aspirate the supernatant, resuspend cells in 1 mL of 1×PBS per tube. Transfer the cell suspension to a 1.5 mL Eppendorf tube, centrifuge at 1600 rpm for 5 min, remove the supernatant, resuspend cells in 100 μL of 1×PBS per tube, add 1 μL of dead/live dye to each tube, mix thoroughly, and incubate at room temperature in the dark for 15 min. […] Position the spleen on a 200-mesh cell strainer. Gently press the spleen using a 10 mL syringe needle. […] Transfer the washed splenocyte suspension into a 15 mL centrifuge tube. Centrifuge at 1600 rpm for 5 min to collect cells. Wash once with 1×PBS. Add 3 mL red blood cell lysis buffer (diluted with ddH2O) to each tube and incubate for 5 min. After lysis, add 10 mL 1×PBS to each tube to terminate lysis. Centrifuge at 1600 rpm for 5 min. Add 1 mL 1×PBS to each 15 mL centrifuge tube, transfer to 1.5 mL EP tubes, and centrifuge at 1600 rpm for 5 min. Add 1 mL 1×PBS to each tube containing stained tumor cells and lysed spleen cells for one wash, centrifuge at 1600 rpm for 5 min, and remove the supernatant. Resuspend tumor cells and spleen cells separately in 100 μL 1×PBS. Add 1 μL FcX™ antibody to each tube and incubate at room temperature in the dark for 10 min. After incubation, sequentially add 1 μL each of CD45, CD11b, Gr1 antibodies. Incubate at 4° C. in the dark for 30 min. After incubation, wash once with 1×PBS, discard the supernatant, resuspend cells in 300 μL 1×PBS, filter the membrane into a flow cytometry tube, and proceed to instrument analysis.

T cells = test: Proportion of T cells in tumor and spleen of H22 xenograft mice (flow cytometry); assay type: in vivo, BALB/c mice
Method: Once all tumors were dissected, nail-sized tumor pieces were transferred to 1.5 mL Eppendorf tubes and minced with scissors. Transfer the minced tumor tissue suspension to a 15 mL centrifuge tube containing 3-5 mL of digestive enzymes (Collagenase IV 1 mg/mL, Hyaluronidase 1 mg/mL, DNase 120 U/mL). Incubate at 37° C. on a shaking incubator at 200 rpm for 1 hour. After digestion, pass the mixture through a 200-mesh sieve to obtain the tumor cell suspension. Centrifuge the resulting tumor suspension at 1600 rpm for 5 min, aspirate the supernatant, resuspend cells in 1 mL of 1×PBS per tube. Transfer the cell suspension to a 1.5 mL Eppendorf tube, centrifuge at 1600 rpm for 5 min, remove the supernatant, resuspend cells in 100 μL of 1×PBS per tube, add 1 μL of dead/live dye to each tube, mix thoroughly, and incubate at room temperature in the dark for 15 min. […] Position the spleen on a 200-mesh cell strainer. Gently press the spleen using a 10 mL syringe needle. […] Transfer the splenocyte suspension into a 15 mL centrifuge tube. Centrifuge at 1600 rpm for 5 min to collect cells. Wash once with 1×PBS. Add 3 mL red blood cell lysis buffer (diluted with ddH2O) to each tube and incubate for 5 min. After lysis, add 10 mL 1×PBS to each tube to terminate lysis. Centrifuge at 1600 rpm for 5 min. Add 1 mL 1×PBS to each 15 mL centrifuge tube, transfer to 1.5 mL EP tubes, and centrifuge at 1600 rpm for 5 min. Add 1×PBS to each tube containing stained tumor cells and lysed spleen cells for one wash, centrifuge at 1600 rpm for 5 min, and remove the supernatant. Resuspend tumor cells and spleen cells separately in 100 μL 1×PBS. Add 1 μL FcX™ antibody to each tube and incubate at room temperature in the dark for 10 min. After incubation, sequentially add 1 μL each of CD45, CD3, and CD8 antibodies to each tube. Incubate at 4° C. in the dark for 30 min. After staining, wash once with 1 mL PBS. Centrifuge at 1600 rpm for 5 min. Discard the supernatant. Resuspend cells in 300 μL 1×PBS. Filter the cell suspension into a flow cytometry tube and proceed to instrument analysis.

H22 cells = test: Antitumor effect in H22 mouse hepatocellular carcinoma subcutaneous xenograft model; assay type: in vivo, BALB/c mice; conditions: oral, 2 weeks
4T1 cells = test: Antitumor effect in 4T1 mouse mammary carcinoma xenograft model; assay type: in vivo, BALB/c mice; conditions: oral, 3 weeks
Method: 4T1 cells were cultured and expanded in vitro. […] A 100 μL aliquot of this suspension was injected subcutaneously into the left forelimb axilla of female BALB/c mice. […] Daily oral administration was performed for 3 weeks. During the treatment period, mouse body weight and tumor diameter were measured daily. At the end of the experiment, mice were euthanized by cervical dislocation, and tumors were removed for weighing. Tumor volume (TV) was calculated using the formula: TV=½×a×b^2, where a represents the longest diameter of the tumor and b represents the shortest diameter.

serum ALT and AST = test: CCl4-induced acute liver injury, serum ALT and AST; assay type: in vivo, C57BL/6 mice; conditions: 200 mg/kg
Method: (§1) They were acclimated for 7 days before use in experiments.
(§2) Mice were randomly assigned to groups. One group was arbitrarily designated as the normal group, while the remaining groups served as model group, Compound 1 group, Hydrochloride 20 group, Fumarate 21 group, and Silibinin group, with 6 mice per group. Except for the normal group receiving 10 mL olive oil/kg via injection, all other mice received 0.5 mL CCl4+9.5 mL olive oil/kg body weight via intraperitoneal injection, maintaining a CCl4 to olive oil ratio of 1:19. Starting from day 1 of modeling, Compound 1, Hydrochloride 20, and Fumarate 21 were administered orally for 3 consecutive days.
(§3) The blood was allowed to stand at room temperature for 2 hours, then centrifuged at 3000 rpm for 20 minutes. Serum was aspirated, aliquoted, and stored at −70° C. for future use. After blood collection, euthanize mice by cervical dislocation. Perform laparotomy to remove the liver. Rinse twice with pre-chilled PBS. Excise the left hepatic lobe tissue. […] Store remaining tissue at −70° C. for future use.
Serum AST and ALT Assay: Use 10 μL of each sample for testing. Determine mouse serum AST and ALT levels according to the operating manual. Measure absorbance at 510 nm using an enzyme-linked immunosorbent assay (ELISA) reader. Calculate sample concentration (U/L) based on the standard curve.
(§4) Data Statistics: All data are expressed as means f standard error of the mean (S.E.M.). Differences were analyzed for significance using analysis of variance (ANOVA). For groups showing significant differences in ANOVA, one-way ANOVA followed by Dunnett's test was performed to compare intergroup differences.

[4] = tested on: fibrosis-related factors (Acta2, Col1a1, Tgfb1) in liver tissue; test: CCl4-induced acute liver injury, liver fibrosis-related factor mRNA; assay type: in vivo, C57BL/6 mice; design: unit not given here; conditions: 200 mg/kg
Method: as §1, §2, §3
Q-PCR Analysis: Tissue total RNA extraction, cDNA synthesis, and PCR amplification methods are identical to Example 4. Additional primer information is as follows:
as §4

[5] = 40 μmol/kg/day, oral, 2 weeks, spleen, flow cytometry
[6] = 40 μmol/kg/day, oral, 2 weeks, tumor, flow cytometry
[7] = compared with solvent control, result in words

Row | Compound | T-cell proliferation rate (%) (T cells / MDSCs) | T cell proliferation in MDSC-T cell co-culture (T cells / MDSCs) | inhibition at 1 µM (MDSCs [1]) | inhibition at 10 µM (MDSCs [1]) | inhibition at 1 µM (CCR2 mRNA) | inhibition at 10 µM (CCR2 mRNA) | Water-solubility [2] | activation at 1 µM (T cells / MDSCs) | inhibition of MDSC chemotaxis compared to Arg (MDSCs [1]) | other results
1 | C=C1C(=O)O[C@H]2[C@H]1CCC(C)=C1CC[C@@](C)(OC(=O)NCCN3CCOCC3)[C@@H]12 [Compound 78] | +++ (T-cell proliferation rate >40% compared to the control group) | significantly enhanced T-cell proliferation | 29% | 67.1% | 23% | 52.7% | 200 µg/mL | – | – | –
2 | C=C1C(=O)O[C@H]2[C@H]1CCC(C)=C1CC[C@@](C)(OC(=O)N3CCCC3)[C@@H]12 [Compound 82] | – | significantly enhanced T-cell proliferation | 38.5% | 77.6% | 28.5% | 74.4% | – | > 40% | superior inhibition rates | solubility ([2]; water, Water-solubility): 148 µg/mL (≈ 428 µM)
3 | C=C1C(=O)O[C@H]2[C@H]1CCC(C)=C1CC[C@@](C)(OC(=O)N3CCCCC3)[C@@H]12 [Compound 83] | – | significantly enhanced T-cell proliferation | 29.4% | 75.9% | 17% | 70% | 152 µg/mL | > 40% | superior inhibition rates | –
4 | C=C1C(=O)O[C@H]2[C@H]1CCC(C)=C1CC[C@@](C)(OC(=O)NCCN3CCOCC3)[C@@H]12 [Compound 99] | + (T-cell proliferation rate within the 0-20% range compared to the control group) | – | – | – | – | – | 220800 µg/mL | – | – | Tumor Inhibition Rate (Hepa1-6 cells): 80.05%; Tumor weight (Hepa1-6 cells; solvent 0.92 ± 1.41): 0.18 ± 0.40 g; Spleen MDSCs (%) (MDSCs [3]; [5]): 30.90 ± 10.21 %; Tumor-associated MDSCs (%) (MDSCs [3]; [6]): 34.85 ± 7.99 %; proportion of MDSCs in tumor tissues and spleens (MDSCs [3]; [7]): significantly reduced; Spleen T cells (%) (T cells; [5]): 31.71 ± 2.95 %; Tumor T cells (%) (T cells; [6]): 22.81 ± 5.33 %; proportion of T cells in tumor tissues and spleens (T cells; [7]): significantly increased; Tumor Suppression Rate (%) (H22 cells; 40 μmol/kg/day, H22 xenograft): 25.18%; Tumor weight (H22 cells; 40 μmol/kg/day, H22 xenograft): 6.40 ± 1.59 g; tumor-inhibiting effect, H22 (H22 cells; result in words): tumor-inhibiting effects; Tumor inhibition rate (%) (4T1 cells; 40 μmol/kg/day, 4T1): 20.94%; Tumor weight (4T1 cells; 40 μmol/kg/day, 4T1): 1.43 ± 0.19 g; antitumor effect, 4T1 (4T1 cells; result in words): no significant antitumor effects
5 | Silybin [reference compound] | – | – | – | – | – | – | – | – | – | ALT (serum ALT and AST): 121.58 ± 15.45 U/L; AST (serum ALT and AST): 301.45 ± 38.44 U/L; Acta2 mRNA expression, liver [4]: 2.91 ± 0.48; Col1a1 mRNA expression, liver [4]: 1.84 ± 0.17; Tgfb1 mRNA expression, liver [4]: 1.11 ± 0.08
